Consider eleven molecules from PubChem BioAssay (NCI).

Several values for one entry are separate records, joined by “and”; a condition that tells them apart may be missing. Equal entries are not always repeated.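 Dose response: 5 concentrations. Exposure: 48 h. Format: 96-well plates. Endpoint: linear interpolation; highest concentration if not reached. Abbreviation: GI50, concentration required for 50% inhibition of growth. TGI: total growth inhibition.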

Common to all, as to assay: inhibition of tumour cell growth, NCI panel, 48 h
In assay [1] the test system is HCT-116 colon.
The subject of assay [2] is OVCAR-5 ovarian.
The subject of assay [3] is LOX IMVI melanoma.
Assay [4] concerns SF-295 CNS.
In assay [5] the test system is DU-145 prostate.
For assay [6], the system named is MALME-3M melanoma.
Assay [7] deals with COLO 205 colon.
Assay [8] has as its system HCC-2998 colon.

Take `Nc1nc(Cl)nc2c1ncn2C1OC(CO)C(O)C1F` (configuration not stated): the GI50 in assay [1] is 0.0322 µM; in assay [2] it was 5.68 µM; in assay [3], 2.18 µM; in assay [4], 1.68 µM; in assay [5] it was 0.278 µM; in assay [6] it was 0.195 µM. Besides, the GI50 in assay [7] was 0.0951 µM; in assay [8], less than 0.0304 µM. Further, the TGI is more than 100 µM in assay [1]; more than 100 µM in assay [2]; more than 100 µM in assay [3]; 13.5 µM in assay [4]; more than 46.2 µM in assay [6]; more than 100 µM in assay [7].
As to `C=C(C(=O)OC)[C@@H]1CC2OC1C(=O)C(C)CCC/C(C)=C/CC[C@@]2(C)O` (some centres not stated), the GI50 in assay [1] is 13.4 µM; in assay [2] it was 76.7 µM; in assay [3], 20.2 µM; in assay [4], 39.5 µM; in assay [5], 15 µM; in assay [6], 10.9 µM. In addition, the GI50 in assay [7] was 25.1 µM. The TGI in assay [1] was 26.2 µM; in assay [2], more than 100 µM; in assay [3], 57.2 µM; in assay [4], more than 100 µM; in assay [5], 28.2 µM; in assay [6] it was 31.1 µM. Besides, in assay [7], the TGI came out at 78.7 µM.
As to `CN1CCN(C(=O)c2ccc(NC(=O)Nc3ccc(-c4nc(N5CCOCC5)c5cccn5n4)cc3)cc2)CC1`, the GI50 in assay [1] is 0.0507 µM; in assay [2], 0.0439 µM; in assay [3], 0.0206 µM; in assay [4], 0.0322 µM; in assay [5], 0.0348 µM; in assay [6], 0.0295 µM. Moreover, the GI50 in assay [7] was 0.0414 µM; in assay [8], 0.0352 µM. The TGI in assay [1] was determined as 15.2 µM; in assay [2], 12.8 µM; in assay [3], 1.74 µM; in assay [4] it was 0.239 µM; in assay [5] it was 12 µM; in assay [6] it was 0.194 µM. Besides, the TGI in assay [7] came to 1.38 µM; in assay [8], 11.8 µM.
Regarding `COc1cc(Cl)c(CC(=O)c2c[nH]c3ccccc23)cc1OC`, the TGI in assay [1] was more than 100 µM; in assay [2], more than 100 µM; in assay [3], more than 100 µM; in assay [4], more than 68.3 µM; in assay [5] it was more than 100 µM; in assay [6] it was more than 100 µM. Further, in assay [7], the TGI is more than 100 µM.
Turning to `O=C1CC(c2cccc(Cl)c2)Oc2ccccc21` (configuration not stated), the TGI in assay [1] turned out to be 31.3 µM; in assay [3], 56.5 µM; in assay [4], 53.6 µM; in assay [5], 38.2 µM; in assay [7] it was 69.3 µM; in assay [8] it was 35.7 µM.
For the molecule `N#CC1=C(N)NC(N2CCOCC2)=NC12Nc1ccccc1O2` (configuration not stated), the GI50 in assay [2] is more than 100 µM; in assay [3] it was 23.7 µM; in assay [4], 38.5 µM; in assay [5] it was 59.3 µM; in assay [6], more than 100 µM; in assay [7], 67.7 µM. Further, the TGI in assay [2] is more than 100 µM; in assay [3] it was 81 µM; in assay [4] it was more than 100 µM; in assay [5], more than 100 µM; in assay [6], more than 100 µM; in assay [7], more than 100 µM.
Take `CCCCCCCCCCCNC=O`: the TGI in assay [1], in assay [2], in assay [3], in assay [4], in assay [5] and in assay [6] was more than 100 µM throughout. Also, the TGI in assay [7] is more than 100 µM; in assay [8], 86.1 µM.
As to `CCOC(=O)c1c(-c2ccccc2)[n+](=O)c2cc(F)c(F)cc2n1[O-]`, the GI50 in assay [1] was 0.238 µM; in assay [2] it was 2.23 µM; in assay [3] it was 0.157 µM; in assay [4], 2.08 µM; in assay [5] it was 1.78 µM. The TGI in assay [1] amounted to 0.584 µM; in assay [2] it was 4.13 µM; in assay [3], 0.298 µM; in assay [4], 3.84 µM; in assay [5] it was 3.55 µM.
For the molecule `COc1cc(/C=C/C(=O)CC(=O)/C=C/c2cc(OC)c(O)c(OC)c2)cc(OC)c1O`, the GI50 in assay [1] is 17.2 µM; in assay [2], 27.1 µM; in assay [3], 15.8 µM; in assay [4] it was 32.3 µM; in assay [5], 20.7 µM; in assay [6], 14.8 µM. In addition, in assay [7], the GI50 was 19.3 µM. Besides, the TGI in assay [1] is 13.3 µM and > 100 µM; in assay [2] it was 25 µM and 83.5 µM; in assay [3], 25 µM and 66.3 µM; in assay [4], 25 µM and > 100 µM; in assay [5] it was 24.8 µM and > 100 µM; in assay [6], 25 µM and 30.6 µM. Further, the TGI in assay [7] was 25 µM and 40.2 µM; in assay [8] it was 11.6 µM.
Turning to `CN(C)CCN1C(=O)c2cccc3c(/C=C/CN4C(=O)c5cccc6cccc(c56)C4=O)ccc(c23)C1=O`, the GI50 is 56.9 µM in assay [1]; 35.5 µM in assay [2]; 14.5 µM in assay [3]; more than 100 µM in assay [4]; more than 100 µM in assay [5]; 4.06 µM in assay [6]. The GI50 in assay [7] and in assay [8] was more than 100 µM in each case. Also, the TGI in assay [1] was more than 100 µM; in assay [2], more than 100 µM; in assay [3] it was 27.7 µM; in assay [4], more than 100 µM; in assay [5] it was more than 100 µM; in assay [6], 30.5 µM. Also, the TGI in assay [7] and in assay [8] was more than 100 µM each time.
In the case of `CC(C)[P+](c1ccccc1)(c1ccccc1)c1ccccc1`, the GI50 in assay [1] is 3.94 µM; in assay [2] it was 28.5 µM; in assay [3] it was 9.94 µM; in assay [4] it was 7.41 µM; in assay [5] it was 7.29 µM; in assay [7], 3.87 µM. For the same molecule, in assay [8], the GI50 is 3.36 µM. For the same molecule, the TGI was more than 100 µM in assay [1]; more than 100 µM in assay [2]; more than 100 µM in assay [3]; 36.6 µM in assay [4]; more than 100 µM in assay [5]; 16 µM in assay [7]. In assay [8], this molecule came in with a TGI of more than 100 µM.
